PMC8816521, “Flux-Based Formulation Development—A Proof of Concept Study” (The AAPS Journal, 2022)
Values after ≈ are worked out from the molar mass of the structure shown. Where two headings read alike, the source gives them in different places.

Experiments:
[1] = Small volume dissolution-permeation (MicroFLUX); format: in vitro ADME; conditions: small scale; donor pH 1.6 converted to FaSSIF pH 6.5 after 30 min, acceptor pH 7.4, 37°C, calculated between 70 and 100 min
Experimental: (§1) The flux across the membrane was calculated using the following equation: 1 Jt=Δn/A*Δt
(§2) where the flux (J) of a drug through the membrane is defined as the amount (n) of drug crossing a unit area (A) perpendicular to its flow per unit time (t). 2 Pe=J/CD where the Pe is the effective permeability of the drug and CD is donor concentration.
Electrospun formulations of TEL were tested using μFLUX (Pion Inc., Billerica MA, USA) apparatus which consists of a donor and an acceptor chamber separated by an artificial membrane (PVDF, polyvinylidenfluoride, 0.45 μm, 1.54 cm^2) impregnated with 25 μL n-dodecane to form a lipophilic barrier between the donor and acceptor chambers. In case of oral drug delivery, the donor chamber represents the stomach’s condition, while the 18 mL pH 7.4 buffer of acceptor chamber represents the blood circulation. The attempt was started in 16 mL pH 1.6 buffer solution; then after 30 min, media in the dissolution vessel was converted to FaSSIF (pH 6.5) by adding 4 mL of SIF concentrate. Both chambers were stirred at 250 rpm at 37°C to keep the thickness of the unstirred aqueous layer on minimum. In both chambers, the API concentration was followed by immersed UV probes connected to the Rainbow instrument (Pion Inc., Billerica MA, USA). The flux and permeability values were calculated using Eqs. (1) and (2) between 70 and 100 min. […]

[2] = Large volume dissolution-permeation (MacroFLUX); format: in vitro ADME; conditions: large scale; donor SGF pH 1.6 converted to FaSSIF pH 6.5 after 30 min, acceptor pH 7.4, 37°C, calculated between 70 and 100 min
Experimental: Final dosage forms of TEL were tested using MacroFLUX^TM (Pion Inc., Billerica MA, USA). […] The flux and permeability values were calculated using Eqs. (1) and (2) between 70 and 100 min.
The MacroFLUX system equipped with in situ fiber optic concentration monitoring was used in this final investigation. The same media conversion protocol as in the case of small volume dissolution-permeation measurements was applied in the dissolution vessel [28]. Micardis, the brand formulation, and the pure amorphous drug were used as references.
Receiver chamber integrated with permeation membrane, overhead stirrer and fiber optic UV probe was inserted in the standard 900 mL vessel of USP 2 apparatus (Erweka DT 126 Dissolution Tester, Heusenstamm Germany). A filter-supported artificial membrane (hydrophobic PVDF, polyvinylidenfluoride, 0.45 μm pore size, 3.8 cm^2) impregnated with 50 μL of n-dodecane was separating the dissolution (donor) compartment from the receiver compartment containing 13 mL of pH 7.4 (Prisma^HT, Pion Inc.). The experiment began in 850 mL of pH 1.6 buffer simulating gastric conditions (SGF) on the donor side and then after 30 minutes media in the dissolution vessel was converted to fasted state simulated intestinal fluid (FaSSIF V1) (pH 6.5) by adding 212.5 mL of specially formulated concentrate containing SIF powder. […]

[3] = parameters: method as in PMID 18501462, PMID 31458196; conditions: between pH 3 and 8; cited from earlier work
[4] = Kinetic solubility in FaSSIF with pre-dissolved additives (in situ UV probes, ZIM); format: physicochemical; conditions: 37 °C
Experimental: Note that in the context of this manuscript, solubility measured by this method will be called kinetic solubility because the form of the solid phase precipitating during these assays was not characterized. […] Ten milliliters of dissolution medium consisting of equilibrated fasted state simulated intestinal fluid (FaSSIF) buffer containing pre-dissolved additives was stirred at 200 rpm and held at 37°C by circulating water through a heating block mounted to a Pion μDISS™ profiler (Pion Inc., Billerica MA, USA). The stock solution was added in 20 μL aliquots to the dissolution medium. 1 M HCl was used to readjust the pH of the media after every addition of the stock solution. During and after addition of the stock solution, UV probes connected to a Pion Rainbow™ Dynamic Dissolution Monitor® system were used to detect changes in UV spectra, thus enabling the detection of precipitation, which provides information about the kinetic solubility limit.
The zero intercept method (ZIM) was implemented in the AuPRO™ software (Pion Inc., Billerica MA, USA), which was considered a suitable method for detecting the solid nanoparticles in solution. It can be noticed that the second derivative spectrum of a particular compound usually crosses the wavelength axis at specific wavelengths that we will call zero intercept method points or ZIM points (λZIM). The ZIM points are characteristic of the compound and are independent of the concentration. The second derivative values at λZIM are expected to be zero […] the compound is fully dissolved. After a critical concentration, solid particles appear in the solution, and a ZIM point shift can be observed. In case of TEL, the ZIM evaluation was carried out at a wavelength of 318 nm.

[5] = PAMPA for evaluating the effect of formulation additives on TEL permeability; format: in vitro ADME; conditions: for Pe: acceptor pH 7.4, 37°C
Experimental: Each well of the top (donor) compartment of 96-well […]™ PAMPA sandwich (Pion Inc., Billerica MA, USA) was coated with 4 μL of n-dodecane. Before forming the sandwich, the bottom (acceptor) plate was prefilled with 180 μL of pH = 7.4 Prisma^HT buffer. The donor plate was filled with 200 μL of FaSSIF buffer with pre-dissolved TEL and formulation additives. The resultant sandwich was incubated at 37°C, and both compartments were stirred at 60 μm (ABL) with Gut-Box™ (Pion Inc., Billerica MA, USA). After 30 min, the PAMPA sandwich was separated, and 100 μL of both the donor and acceptor compartments were transferred to UV plates (UV-star micro plate, clear, flat bottom, half area, Greiner Group AG, Kremsmünster, Austria). UV absorption (230–400 nm) was measured with Tecan Infinite M200 (Tecan Group Ltd., Mannedorf, Switzerland) driven by PAMPA Explorer software™ (Pion Inc., Billerica MA, USA). Three parallel measurements were performed, and the data were measured with six replicates on every single plate.
as §1, §2
At first, an excipient screening on the PAMPA platform was carried out. The excipients of the available TEL formulations and commonly used standard excipients were involved in the investigation of API-excipient interaction. The concentration of the excipients was determined by referring the usual amount of additives in one tablet to 900 mL dissolution media. Due to the experimental differences in the applied doses, the flux data were considered misleading, and the permeability value was used since it is normalized by the donor concentration.

[6] = Solubility of TEL; format: physicochemical

SMILES: CCCc1nc2c(C)cc(-c3nc4ccccc4n3C)cc2n1Cc1ccc(-c2ccccc2C(=O)O)cc1 [Tel_amorphous, telmisartan]
- Pe [1]: 1.19 10^−4 cm/sec
- Pe [2]: 1.03 10^−4 cm/sec

SMILES: CCCc1nc2c(C)cc(-c3nc4ccccc4n3C)cc2n1Cc1ccc(-c2ccccc2C(=O)O)cc1 [TEL, telmisartan]
- solubility [3]: practically insoluble
- solubility kinetic ([4]; FaSSIF buffer with pre-dissolved additive, pH 6.5, aqueous with cosolvent or surfactant or cyclodextrin, TEL in FaSSIF with HPβCD 1386 μg/mL): 37.5 µg/mL (≈ 72.9 µM)
- solubility kinetic ([4]; FaSSIF buffer with pre-dissolved additive, pH 6.5, aqueous with cosolvent or surfactant or cyclodextrin, TEL in FaSSIF with SDS 850 μg/mL): 45.9 µg/mL (≈ 89.1 µM)
- solubility kinetic ([4]; FaSSIF buffer with pre-dissolved additive, pH 6.5, aqueous with cosolvent or surfactant or cyclodextrin, TEL in FaSSIF with Tween 80 0.45 μg/mL): 64.3 µg/mL (≈ 125 µM)
- solubility kinetic ([4]; FaSSIF buffer with pre-dissolved additive, pH 6.5, fassif, TEL in FaSSIF with HMPC 2910 212 μg/mL): 30.9 µg/mL (≈ 60 µM)
- solubility kinetic ([4]; FaSSIF buffer with pre-dissolved additive, pH 6.5, fassif, TEL in FaSSIF with HPMC-AS 212 μg/mL): 34.1 µg/mL (≈ 66.3 µM)
- solubility kinetic ([4]; FaSSIF buffer with pre-dissolved additive, pH 6.5, fassif, TEL in FaSSIF with Lactose monohydrate 667 μg/mL): 32.8 µg/mL (≈ 63.7 µM)
- solubility kinetic ([4]; FaSSIF buffer with pre-dissolved additive, pH 6.5, fassif, TEL in FaSSIF with Mannitol 667 μg/mL): 39.7 µg/mL (≈ 77.1 µM)
- solubility kinetic ([4]; FaSSIF buffer with pre-dissolved additive, pH 6.5, fassif, TEL in FaSSIF with PVP K30 212 μg/mL): 34.7 µg/mL (≈ 67.4 µM)
- solubility kinetic ([4]; FaSSIF buffer with pre-dissolved additive, pH 6.5, fassif, TEL in FaSSIF with PVP K90 212 μg/mL): 34.4 µg/mL (≈ 66.8 µM)
- solubility kinetic ([4]; FaSSIF buffer with pre-dissolved additive, pH 6.5, fassif, TEL in FaSSIF with Sorbitol 667 μg/mL): 30.7 µg/mL (≈ 59.7 µM)
- solubility kinetic ([4]; FaSSIF buffer, pH 6.5, fassif, TEL in FaSSIF, no additive (0 μg/mL)): 37.3 µg/mL (≈ 72.4 µM)
- Papp at 30 min ([5]; PAMPA, excipient-free TEL on the plate of the additive in that table row, FaSSIF donor, 37°C, read-out: Reference Pe): 111 ×10⁻⁶ cm/s
- Pe ([5]; TEL with HMPC 2910 212 μg/mL in FaSSIF donor, 30 min): 1.22 10^−4 cm/sec
- Pe ([5]; TEL with HPMC-AS 212 μg/mL in FaSSIF donor, 30 min): 1.28 10^−4 cm/sec
- Pe ([5]; TEL with HPβCD 1386 μg/mL in FaSSIF donor, 30 min): 1.21 10^−4 cm/sec
- Pe ([5]; TEL with Lactose monohydrate 667 μg/mL in FaSSIF donor, 30 min): 1.39 10^−4 cm/sec
- Pe ([5]; TEL with Mannitol 667 μg/mL in FaSSIF donor, 30 min): 1.23 10^−4 cm/sec
- Pe ([5]; TEL with PVP K30 212 μg/mL in FaSSIF donor, 30 min): 1.31 10^−4 cm/sec
- Pe ([5]; TEL with PVP K90 212 μg/mL in FaSSIF donor, 30 min): 1.25 10^−4 cm/sec
- Pe ([5]; TEL with SDS 850 μg/mL in FaSSIF donor, 30 min): 0.83 10^−4 cm/sec
- Pe ([5]; TEL with Sorbitol 667 μg/mL in FaSSIF donor, 30 min): 1.42 10^−4 cm/sec
- Pe ([5]; TEL with Tween 80 0.45 μg/mL in FaSSIF donor, 30 min): 0.86 10^−4 cm/sec
- Reference Pe ([5]; excipient-free TEL on the plate of the additive in that table row, FaSSIF donor, 37°C, 30 min): 1.16 10^−4 cm/sec
- Solubility in 1 M NaOH solution ([6]; 1 M NaOH solution, aqueous): dissolves extremely well
- solubility ([6]; pH 6.5, crystalline TEL in FaSSIF media): < 1 µg/mL
